The values that follow are results of earlier work, collected in patent publication US6403120B1 (Wyeth, priority 1996, dated 2002).

For this data set the following is noted: plural daily dosing regimen.

With `COc1ccc(C(CN(C)C)C2(O)CCCCC2)cc1.Cl` (centres unmarked) [venlafaxine hydrochloride, 1-[2-(dimethylamino)-1-(4methoxyphenyl)ethyl]cyclohexanol hydrochloride], the patients experiencing nausea result was “about forty five” and the patients with vomiting result is listed as “about seventeen”.
